In patent publication US11117874B2, “Certain (2S)-N-[(1S)-1-cyano-2-phenylethyl]-1,4-oxazepane-2-carboxamides as dipeptidyl peptidase 1 inhibitors” (AstraZeneca AB, priority 2014, dated 2021):

Experiments:
[1] = Test B: In-Vitro Competitive Aortic Tissue Binding Assay; conditions: 100 μM compound pre-incubated overnight at 37° C. with rat aortic homogenate, competition with 100 μM [14C]4-amino-N-[(1S)-1-cyano-2-(4′-cyanobiphenyl-4-yl)ethyl]tetrahydro-2H-pyran-4-carboxamide; four categories
Description: To assist the design of DPP1 inhibitors with a decreased risk of binding to elastin rich tissues, such as the aorta, the in-vitro competitive aortic binding assay disclosed below (Test B) was developed to facilitate the selection process.
Test B: In-Vitro Competitive Aortic Tissue Binding Assay
Aortic homogenate was prepared from the thoracic aortae of Han Wistar rats. Freshly isolated to thoracic aortae were frozen, and later thawed and stripped of non-elastic material.
Homogenate concentration was adjusted to 30 mg/mL in Puck's saline, and aliquots were stored at −80° C. until use. Positive and negative control compounds and test compounds were made up to 100 mM in DMSO, and added to 1 mL aliquots of aortic homogenate in Puck's saline for a final concentration of 100 μM. Homogenate samples were pre-incubated with test compounds at 37° C., rotating, overnight. [^14C]4-Amino-N-[(1S)-1-cyano-2-(4′-cyanobiphenyl-4-yl)ethyl]tetrahydro-2H-pyran-4-carboxamide was then added to all samples to a final concentration of 100 μM, and samples were incubated at 37° C., rotating, for a further 2 h. Protein was precipitated from each sample by the addition of 10 mL acetone, pre-chilled to −20° C. Samples were left overnight at −20° C. to allow complete precipitation. Precipitate was pelleted by centrifugation at 4,500×g at 4° C. for 20 min, an aliquot of supernatant was removed for analysis, and the remainder of the supernatant discarded. Precipitate was washed by resuspension in 10 mL 80% methanol in distilled water, and re-pelleted by centrifugation at 4,500×g at 4° C. for 20 min. […] After final wash, precipitate was air-dried, and dissolved overnight in 1 mL NCSII Tissue Solubiliser. 1 mL aliquots of supernatants were added to 5 mL Ultima Gold scintillation fluid (Perkin Elmer, Mass., U.S.A.), and 1 mL solubilised pellets were added to 5 mL Hionic-Fluor scintillation fluid (Perkin Elmer, Mass., U.S.A.). Radioactivity of samples was determined on a Beckman LS6500 multipurpose scintillation counter (Beckman Coulter, Ind., U.S.A.). […] Duplicate samples were tested for each compound on each experimental occasion, and at least two experiments were run for each test compound. […] 1-way ANOVA and to Bonferroni's multiple comparison tests were performed to calculate significance of differences from vehicle control.

[2] = described in literature (Schmidt et al. 1984); cited from earlier work

Aortic Tissue Binding [1] | Structure (SMILES) | retention in the aorta in QWBA studies [2]
No binder | Cn1c(=O)oc2ccc(-c3ccc(C[C@@H](C#N)NC(=O)[C@@H]4CNCCCO4)cc3)cc21 [Example 2, (2S)—N-{(1S)-1-Cyano-2-[4-(3-methyl-2-oxo-2,3-dihydro-1,3-benzoxazol-5-yl)phenyl]ethyl}-1,4-oxazepane-2-carboxamide] | –
Medium binder | Cn1c(=O)oc2ccc(-c3ccc(C[C@@H](C#N)NC(=O)[C@@H]4CCCCN4)cc3)cc21 [WO2009/074829 (Example 96)] | –

The next lines start with the molecule.

Structure (SMILES) | Aortic Tissue Binding [1] | retention in the aorta in QWBA studies [2]
CC(c1ccc(Cl)c(Cl)c1)N1N=C(N)CC1=O (stereo not drawn) [muzolimine] | – | retained selectively in the aorta
N#Cc1ccc(-c2ccc(C[C@@H](C#N)NC(=O)C3(N)CCOCC3)cc2)cc1 [WO2010/128324 (Ex. 3), 4-amino-N-[(1S)-1-cyano-2-(4′-cyanobiphenyl-4-yl)ethyl]tetrahydro-2H-pyran-4-carboxamide] | Strong binder (reference) | –
Cn1c(=O)oc2ccc(-c3ccc(C[C@@H](C#N)NC(=O)C4(N)CCOCC4)cc3)cc21 [WO2010/128324 (Example 17)] | Strong binder | –
N#Cc1ccc(-c2ccc(C[C@@H](C#N)NC(=O)[C@@H]3CCCCN3)cc2)cc1 [WO2009/074829 (Example 24)] | Binder | –
